Here are results for one molecule from US20250204525A1, “ANTIMICROBIAL COMPOSITIONS” (Curie Co. Inc., priority 2023, published 2025).

In this experiment the test system is bacterial pool of E. coli, S. aureus, and P. aeruginosa. Put plainly: Antibacterial challenge testing of foaming hand soap (Example 2A). The class given is cell-based. As for the experimental part:
For antibacterial challenge testing, one vial each of E. coli, S. aureus, and P. aeruginosa was rehydrated in 1 mL peptone buffer. The concentrations of the cell suspensions were determined based on the Certificates of Analysis accompanying each bacteria vial, and the suspensions were combined and diluted in BPDB to make a 3×10^8 CFU/mL bacterial pool composed of 1×10^8 CFU/mL of each of E. coli, S. aureus, and P. aeruginosa at a final volume of 1 mL. For antifungal challenge testing, one vial of C. albicans was rehydrated in 1 mL peptone buffer. The concentration of the cell suspension was determined based on the Certificate of Analysis accompanying the vial of yeast. The resuspended cells were diluted in BPDB to 3×10^7 CFU/mL at a final volume of 1 mL.
The enumeration of the microbial population in antibacterial and antifungal challenge testing was performed in the following manner. At day 0, a 3-mL sample was collected from each of the prepared formulations and inoculated with 0.03 mL of the bacterial pool to obtain a final inoculum of 3×10^6 CFU/mL. The inoculated samples were maintained under the same conditions from day 0 to day 7. At each analysis timepoint, the inoculated samples were subjected to 10-fold serial dilutions in BPDB to obtain diluted samples such that 25-250 colonies were estimated to be yielded from 0.1 mL of the diluted sample plated on a tryptic soy agar petri dish containing Polysorbate 80 and Lecithin. The petri dishes were incubated at 31.5+/−1° C. for 24 to 48 hours. The petri dishes were then removed from the incubator and the colonies were counted and multiplied by their corresponding dilution factors to determine the bacterial concentrations (in CFU/mL) of the samples. At day 2 and day 7 post-inoculation, the serial dilutions, plating, and colony counting were repeated to monitor the changes in bacterial population.

[1] abbreviates: foaming hand soap pH 6.5, sodium benzoate 0.5% alone.
Where [2] appears, read: foaming hand soap pH 6.5, sodium benzoate 0.5% alone, listed as sodium benzoate.
[3] abbreviates: foaming hand soap pH 7.0, sodium benzoate 1% alone.
[4] abbreviates: foaming hand soap pH 7.0, sodium benzoate 1% alone, listed as sodium benzoate.
Where [5] appears, read: foaming hand soap pH 7.5, sodium benzoate 1% alone.
Setting [6] is: foaming hand soap pH 8.0, sodium benzoate 1% alone.

As to `O=C([O-])c1ccccc1.[Na+]` [Sodium Benzoate, Sodium benzoate], the “Day 2 log reduction in CFU/mL compared to Day 0” value runs as follows: under setting [1], 0.84 log CFU/mL; under setting [2], “Modest reductions”; under setting [3], 0.88 log CFU/mL; under setting [4], “Modest reductions”; under setting [5], −0.62 log CFU/mL; under setting [6], −0.90 log CFU/mL. For the same molecule, the “Day 7 log reduction in CFU/mL compared to Day 0” value is −1.25 log CFU/mL under setting [1]; “no reduction” under setting [2]; −1.39 log CFU/mL under setting [3]; “no reduction” under setting [4]; −1.23 log CFU/mL under setting [5]; “no reduction” (foaming hand soap pH 7.5, sodium benzoate 1% alone, listed as sodium benzoate). In addition, the “Day 7 log reduction in CFU/mL compared to Day 0” value by setting is: under setting [6], −0.91 log CFU/mL; (foaming hand soap pH 8.0, sodium benzoate 1% alone, listed as sodium benzoate) “no reduction”.
